Test results: publication PMC11063903, “Engineering a human P2X2 receptor with altered ligand selectivity in yeast” (The Journal of Biological Chemistry, 2024)

Key:
[1] = tested on: P2X2 F301 mutants; assay: Site-saturation screen of ligand-binding domain with ATP, F301 mutants; format: cell-based, human; conditions: 500 μM ATP
From the text: (§1) The yeast P2X2 screening platform poses an opportunity to probe the structure-function of the ligand-binding domain in detail. The conserved P2X “NFR” motif at residues 300 to 302 is directly involved in bonding to the ATP triphosphate moiety ([41]), so we mutagenized residues at or near this motif (298–304), ultimately covering 133 variants (7 sites, 19 residues each). […] We compared our results to phylogenetic data based on a multiple sequence alignment (MSA) from a curated set of 419 related P2X homologs (Figs. 3B, and S5; Table S1).
(§2) Figure 3 Structure-function analysis of the ligand binding domain.A, heat map summarizing the screening data of ATP with seven site-saturation libraries surrounding the NFR-motif. B, sequence-logo plot of the mutagenized residues and percent identity scores as determined from MSA. C, homology model of P2X2 colored by sequence conservation as calculated from a multiple sequence alignment of 419 related P2X genes. Conservation is scored on a log scale where maroon is more conserved and blue is less conserved. D, ATP in the ligand-binding pocket of P2X2. […]
(§3) GCaMP assays were performed as follows. […] Cells were loaded onto a black, clear bottom microplate and imaged on a FlexStation3 plate reader. […] Fluorescence was measured with an excitation at 485 nm, and emission 525 nm. […] For strains with mScarlet, fluorescence was read with excitation 570 nm/emission 610 nm. […]

[2] = tested on: P2X2 G298 substitutions; assay: Site-saturation screen of ligand-binding domain with ATP, G298 substitutions; format: cell-based, human; conditions: 500 μM ATP
From the text: as §1, §2, §3

[3] = molecular target: T1, P2X2 A304V (Homo sapiens, UniProt Q9UBL9, A304V); assay: Site-saturation screen of ligand-binding domain with ATP, A304V; format: cell-based; conditions: 500 μM ATP, ± sd
T1 construct: expressed in transfected cells; host or cells: Saccharomyces cerevisiae BY4741 derivative, genome-integrated, galactose-inducible
T1 sequence (Q9UBL9 whole entry A304V, the tested form may be a part): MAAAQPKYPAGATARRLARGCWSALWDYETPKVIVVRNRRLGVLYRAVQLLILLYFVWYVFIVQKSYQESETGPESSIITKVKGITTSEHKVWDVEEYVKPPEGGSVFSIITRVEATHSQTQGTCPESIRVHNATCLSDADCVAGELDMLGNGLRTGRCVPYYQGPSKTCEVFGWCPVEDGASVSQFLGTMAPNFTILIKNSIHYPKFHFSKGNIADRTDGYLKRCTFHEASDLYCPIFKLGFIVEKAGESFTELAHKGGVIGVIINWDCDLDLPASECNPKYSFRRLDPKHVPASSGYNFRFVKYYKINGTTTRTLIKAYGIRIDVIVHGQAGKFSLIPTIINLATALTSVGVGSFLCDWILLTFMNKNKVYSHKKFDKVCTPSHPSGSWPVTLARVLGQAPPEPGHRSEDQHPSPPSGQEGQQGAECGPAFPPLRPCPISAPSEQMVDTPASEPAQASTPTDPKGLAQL
From the text: as §1, §2, §3

[4] = molecular target: T2, human P2X2 receptor (Homo sapiens, UniProt Q9UBL9); assay: GCaMP calcium assay of P2X2 expressed in yeast S. cerevisiae, agonist response; format: cell-based
T2 construct: expressed in transfected cells; host or cells: S. cerevisiae BY4741 background, P2X2 genome-integrated under a galactose-inducible promoter
T2 sequence (Q9UBL9 1-471): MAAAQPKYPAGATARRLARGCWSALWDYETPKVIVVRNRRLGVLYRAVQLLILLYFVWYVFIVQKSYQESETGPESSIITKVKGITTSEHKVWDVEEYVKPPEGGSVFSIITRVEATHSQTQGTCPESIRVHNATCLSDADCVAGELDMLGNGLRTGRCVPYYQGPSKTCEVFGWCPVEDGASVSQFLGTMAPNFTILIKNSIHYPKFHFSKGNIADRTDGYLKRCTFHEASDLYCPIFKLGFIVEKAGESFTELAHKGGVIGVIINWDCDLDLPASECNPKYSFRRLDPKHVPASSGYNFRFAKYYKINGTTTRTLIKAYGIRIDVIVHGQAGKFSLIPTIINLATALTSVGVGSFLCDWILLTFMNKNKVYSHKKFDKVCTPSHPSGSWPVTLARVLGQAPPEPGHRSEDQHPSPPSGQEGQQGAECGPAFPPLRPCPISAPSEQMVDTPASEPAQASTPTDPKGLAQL
From the text: Although P2X receptors are expressed in many eukaryotic organisms including some fungi ([24]), they are not present in S. cerevisiae. For recombinant expression to yield functional P2X channels, receptor proteins must be correctly folded, assembled into trimers, and efficiently trafficked to the plasma membrane. To assess whether P2X ion channels could functionally gate in S. cerevisiae the canonical isoforms of P2X1-7 were co-expressed with aequorin, a calcium-activated photoprotein from the jellyfish Aequorea victoria.
Genetic knockouts of the calnexin homolog (ΔCne1p) and vacuolar calcium transporter (Δ Vcx1p) (n = 3) were compared to the WT yeast strain (n = 2). […] Statistical analysis was performed using one-way ANOVA with Dunnett’s multiple comparisons test where ∗∗ is p ≤ 0.01. […] Yeast were injected with ATP at 21 s and onset rates from the last six points (40–48 s) were used for calculating the dose response in (D). E and F, kinetic and dose–response measurements of P2X2 with the GCaMP reporter with ATP (n = 4), partial agonist BzATP (n = 3), and agonist 2-chloro-ATP (n = 4). Figures (D and F) share the figure legend with (C). […] Suramin was pre-equilibrated with P2X2-yeast for 10 min and 5 μM ATP was injected.
To expand the assay throughput to accommodate several 96-well plates at a time, we required the acquisition of short-duration signals. Since GCaMP signals are typically measured in terms of ΔF/F0, where ΔF is Fmax-Fmin, and since the signal takes several minutes to reach Fmax, we instead attempted to correlate the rate of signal onset (rather than its amplitude) with channel activity.
Having optimized our yeast strains and assay throughput, we sought to further validate the function of human P2X2 in the yeast host.
GCaMP assays were performed as follows. P2X2 GCaMP strains were designed with a bi-cistronic reporter, in which the GCaMP protein was followed by a 2A peptide and a mScarletI reporter ([53]). The co-translated mScarletI was designed to act as a control for plasmid loss, GCaMP breakage via nonsense mutation, and contamination. […] P2X2-GCaMP strains were cultured and induced as previously described. Samples were induced for 24 h to allow for the accumulation of the mature GCaMP protein. Cells were washed three times in 0.1 M MES/Tris buffer and resuspended with MES/Tris with supplemental calcium. Cells were loaded onto a black, clear bottom microplate and imaged on a FlexStation3 plate reader. Samples were imaged in “flex” mode. Samples were imaged for 48 s at an interval of 1.6 s. Fluorescence was measured with an excitation at 485 nm, and emission 525 nm. At the 21 s mark, 100 μl ligand solution was transferred to the cells. For strains with mScarlet, fluorescence was read with excitation 570 nm/emission 610 nm. Slopes were calculated from the last 6 points of measurement and were normalized to the positive control samples. Any replicate in which the mScarlet value was measured to be over 2 standard deviations less than the mean for that set was discarded from further analysis.

Question: Which results are given for `Nc1ncnc2c1ncn2[C@@H]1O[C@H](COP(=O)(O)OP(=O)(O)OP(=O)(O)O)[C@@H](O)[C@H]1O` [ATP]?
Answer: signaling [1]: None of the F301 mutants showed significant signaling; ligand gating activity compared to the negative control [2]: none of the G298 substitutions exhibiting ligand gating activity; signal, % of WT signaling [3]: 32 ± 2.1%; maximum fluorescence compared to a negative control receptor ([4]; GCaMP strain, saturating (500 μM) ATP, vs K81C K83C P2X2): 12 fold; pEC50 (signaling onset rate ΔF/ΔT) ([4]; rapid GCaMP assay format, yeast, Fig. 1D): 5.88 ± 0.056; EC50 ([4]; rapid GCaMP assay format, yeast, Fig. 1D, read-out: EC50 (signaling onset rate ΔF/ΔT)): 1300 nM
